{"source": "patent US20210205253A1", "about": "“Use Of Stearic Acid For Preventing Or Treating Pulmonary Fibrosis” (THE ASAN FOUNDATION, priority 2018, published 2021)", "key": {"[1]": {"test_system": "p-Smad2/3 and Smad7 in MRC-5 cells", "test": "p-Smad2/3 and Smad7 expression in fibroblasts", "type": "cell-based, human", "conditions": "5 mM NAC pre-treatment 1 h, TGF-β1 1 h", "procedure": "The present inventors pre-treated a human pulmonary fibroblast cell line MRC-5 with 40 μM stearic acid for 16 hours, treated the MRC-5 cells with TGF-β1 for 1 hour, and then examined the expression levels of p-Smad2/3 and Smad7 in order to elucidate the anti-fibrotic mechanism of stearic acid in human pulmonary fibroblasts (FIGS. 12A and 12B). Further, to investigate the effect of stearic acid on the production of reactive oxygen species (ROS), MRC-5 cells were pre-treated with 40 μM stearic acid for 16 hours, and cells treated with TGF-β1 for 1 hour were stained with DCF-DA and analyzed by FACS (FIG. 12C). Furthermore, MRC-5 cells were pre-treated with 5 mM N-acetylcysteine (NAC), which is an antioxidant, for 1 hour and treated with TGF-β1 for 1 hour, and then the expression of p-Smad2/3 was examined (FIG. 12D)."}, "[2]": {"test_system": "human primary fibroblasts", "test": "Combined treatment of stearic acid and nintedanib in human primary fibroblasts", "type": "cell-based", "procedure": "The primary fibroblasts derived from the patients with idiopathic pulmonary fibrosis used in the following experiment were cultured for 7 to 10 days while cutting the lung tissue of the patient into 1×1 mm^2 slices, and then periodically exchanging a cell culture solution (Eagle's minimal essential medium; EMEM) supplemented with 100 unit/ml penicillin, 100 μg/ml streptomycin, and 10% fetal bovine serum (FBS) under conditions of 5% CO2 and 37° C., and cells of passage 2 to 5 were used for the experiment. To verify the anti-fibrotic effect by the combined treatment of stearic acid and nintedanib, which is another therapeutic agent for idiopathic pulmonary fibrosis, human primary fibroblasts were respectively or simultaneously treated with 5 ng/ml TGF-β, 40 μM stearic acid, and 1.5 or 2 μM nintedanib for 24 hours, and then the expression levels of collagen type 1 (COL-1) and α-SMA, which are markers of fibrosis, were measured, respectively."}, "pulmonary fibroblasts": {"test_system": "pulmonary fibroblasts", "test": "Collagen 1 and α-SMA immunoblotting in pulmonary fibroblasts", "type": "cell-based, human", "conditions": "relative to control", "procedure": "After epithelial cells and fibroblasts were aliquoted into 6-well plates at 2×10^4 cells/well and a stabilization time was imparted for 24 hours, and 15 hours after deficiency, cells were treated with stearic acid (40 uM/mL), TGF-β (5 ng/mL), and stearic acid (40 uM/mL)+TGF-β (5 ng/mL) in this order. After the cells were cultured in an incubator for 24 hours after the treatment, the next-step experiment was performed. After 24 hours of cell stimulation by the method of Example 1-3, the cells were washed twice with iced phosphate buffer saline (PBS), a protein lysate solution was put thereinto, the cells were scraped out and collected in a 1.5 ml EP tube, and then the cells were lysed in a grinder for 30 seconds. Next, centrifugation was performed at a speed of 14,000 rpm at 4° C. for 20 minutes, and the protein was quantified using the BCA analysis method. Thereafter, the protein sample was boiled at 95° C. for 10 minutes for the same amount of protein, and then the expression levels of collagen type 1 and α-SMA were measured by immunoblotting. After the expression level of the protein was confirmed, a significance test between samples was performed using a statistical program. […] The collagen 1/actin or α-SMA/actin indicated on the y-axis of FIGS. 4A and 4B means a value obtained by correcting the protein amount of collagen 1 or α-SMA with the amount of actin, which is an intracellular control protein. […] Further, referring to the test method of obtaining the results in FIG. 4, after pulmonary fibroblasts were treated with palmitic acid at various concentrations (10, 20, and 40 μM/mL), the levels of collagen 1 (collagen 1/actin; FIG. 6A) and α-SMA (α-SMA/actin; FIG. 6B), which are intracellular fibrosis markers, were measured, and shown as relative values to the control (CTL; medium only). […] 40 uM/mL stearic acid, 10 uM/mL palmitic acid, and 5 ng/mL TGF-β were used in the experiment, respectively. […] In addition, referring to the test method of obtaining the results in FIG. 7, the experiment was performed using oleic acid (OA) instead of palmitic acid, and the levels of collagen 1 (collagen 1/actin; FIG. 8A) and α-SMA (α-SMA/actin; FIG. 8B) were measured and shown as relative values to the control (CTL; medium only). 40 uM/mL stearic acid, 40 uM/mL oleic acid, and 5 ng/mL TGF-β were used in the experiment, respectively."}, "[3]": {"test_system": "human pulmonary epithelial cells (BEAS-2B)", "test": "Cell viability (MTT) of human pulmonary epithelial cells", "type": "cell-based", "conditions": "palmitic acid 10, 20 and 40 μM/mL alone", "procedure": "(§1) After epithelial cells and fibroblasts were aliquoted into 6-well plates at 2×10^4 cells/well and a stabilization time was imparted for 24 hours, and 15 hours after deficiency, cells were treated with stearic acid (40 uM/mL), TGF-β (5 ng/mL), and stearic acid (40 uM/mL)+TGF-β (5 ng/mL) in this order. After the cells were cultured in an incubator for 24 hours after the treatment, the next-step experiment was performed.\n(§2) After a 24-hour cell stimulation by the method in Example 1-3 was completed, the medium of epithelial cells and fibroblasts was replaced with a general culture medium, 10 μl of an MTT solution (20 mg/ml) was further added, and then the outside of the plate was wrapped with aluminum foil and cells were cultured in an incubator for 2 hours. […] After 2 hours, cell activation was measured at an absorbance value of 595 nm using an ELISA reader.\n(§3) For this purpose, after each culture (BEGM(Lonza) in the case of MRC-5, and BMEM (ATCC) in the case of BEAS-2B) of human pulmonary fibroblasts (MRC-5; ATCC® CCL171™) and human pulmonary epithelial cells (BEAS-2B; ATCC® CRL9609™) was treated with stearic acid (40 uM/mL), TGF-β (5 ng/mL; Sigma), or stearic acid (40 uM/mL)+TGF-β (5 ng/mL) by the method described in Example 1-3 for 24 hours, cell viability was measured by the method in Example 1-4. […]"}, "[4]": {"test_system": "human pulmonary fibroblasts (MRC-5)", "test": "Cell viability (MTT) of human pulmonary fibroblasts", "type": "cell-based", "conditions": "palmitic acid 10, 20 and 40 μM/mL alone", "procedure": "as §1, §2, §3"}, "[5]": {"test_system": "human pulmonary epithelial cell line Beas-2B", "test": "Fibronectin (EMT marker) expression under combined treatment in epithelial cells", "type": "cell-based", "conditions": "TGF-β 5 ng/ml; pirfenidone 800 μM, stearic acid 40 μM", "procedure": "FIG. 15 illustrates, as the results of confirming the anti-fibrotic effect according to the combined treatment with stearic acid and pirfenidone in a human pulmonary epithelial cell line BEAS-2B, the results of treating the cells with TGF-β (5 ng/ml), stearic acid (40 μM), and/or pirfenidone (800 μM), and then measuring the expression of fibronectin with a marker of EMT, which is one of the pulmonary fibrosis indices, and quantitatively analyzing the inhibitory efficiency thereof (TGF: TGF-β single treatment group, TGF+PIR: TGF-β and pirfenidone treatment group, TGF+Combi: TGF-β and pirfenidone+stearic acid combined treatment group).\nIn addition to the results of Example 3-1-1, the present inventors tried to analyze the degree of epithelial to mesenchymal transition (EMT), which is one of the indices for pulmonary fibrosis, during the combined treatment with stearic acid and pirfenidone by treating a human pulmonary epithelial cell line Beas-2B with 800 μM, and for this purpose, the expression level of fibronectin, which is one of the EMT markers, was measured."}, "[6]": {"test_system": "pulmonary fibrosis induced by bleomycin", "test": "Combined stearic acid and pirfenidone in bleomycin pulmonary fibrosis animal model", "type": "in vivo, mice (C57BL/6J)", "conditions": "3 mg/kg stearic acid, 300 mg/kg pirfenidone oral once every 2 days for 2 weeks", "procedure": "In addition to the results of the above examples, the present inventors sought to confirm the anti-fibrotic effect by the combined treatment of stearic acid and pirfenidone in a pulmonary fibrosis animal model. For this purpose, 8-week-old mice (C57BL/6J) were anesthetized with 50 mg/kg […] and 5 mg/kg Rompun, followed by injection of bleomycin and saline into the trachea. From 7 days after administration of bleomycin, 3 mg/kg stearic acid, 300 mg/kg pirfenidone or the two drugs were orally administered at the same time once every 2 days for 2 weeks, and changes in mouse body weight were measured up to 21 days after administration of bleomycin."}, "[7]": {"test_system": "human primary fibroblasts", "test": "Combined treatment of stearic acid and pirfenidone in human primary fibroblasts (western blotting)", "type": "cell-based", "conditions": "TGF-β single treatment group set to 100%; corrected with actin", "procedure": "The primary fibroblasts derived from the patients with idiopathic pulmonary fibrosis used in the following experiment were cultured for 7 to 10 days while cutting the lung tissue of the patient into 1×1 mm^2 slices, and then periodically exchanging a cell culture solution (Eagle's minimal essential medium; EMEM) supplemented with 100 unit/ml penicillin, 100 μg/ml streptomycin, and 10% fetal bovine serum (FBS) under conditions of 5% CO2 and 37° C., and cells of passage 2 to 5 were used for the experiment.\nTo verify the anti-fibrotic effect by the combined treatment of stearic acid and pirfenidone, which is a therapeutic agent for idiopathic pulmonary fibrosis, the human primary fibroblasts isolated by the above-described method were respectively or simultaneously treated with 5 ng/ml TGF-β, 40 μM stearic acid, and 400 or 800 μM pirfenidone for 24 hours, and then the expression levels of collagen type 1 (COL-1) and α-SMA, which are markers of fibrosis, were measured by western blotting, and the inhibitory rate was quantitatively analyzed by correcting the amount of each protein with the amount of actin, which is an intracellular control protein."}, "[8]": {"conditions": "1.5 μM nintedanib single treatment versus TGF single treatment"}, "[9]": {"conditions": "2 μM nintedanib single treatment versus TGF single treatment"}, "[10]": {"conditions": "palmitic acid 10, 20 and 40 μM/mL alone"}}}
{"smiles": "CC(=O)N[C@@H](CS)C(=O)O", "note": "[NAC, N-acetylcysteine, reference compound]", "values": [{"measurement": "expression of p-Smad2/3 induced by TGF-β1", "setting": "[1]", "result": "inhibited"}]}
{"smiles": "COC(=O)c1ccc2c(c1)NC(=O)/C2=C(\\Nc1ccc(N(C)C(=O)CN2CCN(C)CC2)cc1)c1ccccc1", "note": "[nintedanib]", "values": [{"measurement": "expression level of COL-1", "setting": "[2]; [8]", "result": "no change"}, {"measurement": "expression level of α-SMA", "setting": "[2]; [8]", "result": "no change"}, {"measurement": "expression level of COL-1", "setting": "[2]; [9]", "result": "no change"}, {"measurement": "expression level of α-SMA", "setting": "[2]; [9]", "result": "no change"}, {"measurement": "inhibition at 2 µM", "setting": "[2]; Homo sapiens, Col1, 2 μM nintedanib, 40 μM stearic acid, COL-1 expression caused by TGF assumed 100%, read-out: inhibitory rate against COL-1", "result": 110, "unit": "%"}]}
{"smiles": "CCCCCCCC/C=C\\CCCCCCCC(=O)O", "note": "[oleic acid, reference compound]", "values": [{"measurement": "collagen 1/actin", "setting": "pulmonary fibroblasts; oleic acid 40 uM/mL alone", "result": "activated pulmonary fibrosis at the same level as in TGF-β"}, {"measurement": "α-SMA/actin", "setting": "pulmonary fibroblasts; oleic acid 40 uM/mL alone", "result": "activated pulmonary fibrosis at the same level as in TGF-β"}]}
{"smiles": "CCCCCCCCCCCCCCCC(=O)O", "note": "[palmitic acid, reference compound]", "values": [{"measurement": "collagen 1/actin", "setting": "pulmonary fibroblasts; [10]", "result": "increased at levels similar to that in the case where pulmonary fibroblasts were treated with only TGF-β"}, {"measurement": "α-SMA/actin", "setting": "pulmonary fibroblasts; [10]", "result": "increased at levels similar to that in the case where pulmonary fibroblasts were treated with only TGF-β"}, {"measurement": "cell viability of pulmonary epithelial cells", "setting": "[3]", "result": "decreased according to the treatment concentration"}, {"measurement": "cell viability of pulmonary fibroblasts", "setting": "[4]", "result": "increased according to the concentration"}]}
{"smiles": "Cc1ccc(=O)n(-c2ccccc2)c1", "note": "[pirfenidone]", "values": [{"measurement": "expression of fibronectin, quantitative analysis of inhibitory efficiency", "setting": "[5]", "result": "about 120%"}, {"measurement": "hydroxyproline inhibition, quantitative analysis", "setting": "[6]", "result": 105, "unit": "%"}, {"measurement": "level of hydroxyproline", "setting": "[6]; versus bleomycin group", "result": "partially reduced"}, {"measurement": "body weight", "setting": "[6]; up to day 21 after bleomycin", "result": "further reduced"}, {"measurement": "inhibitory rate of COL-1", "setting": "[7]", "result": 157, "unit": "%"}]}
